Experimental data taken from patent US20250073255A1, “USE OF FA-TYPE LIPID COMPOUNDS IN PREPARATION OF NUCLEIC ACID DELIVERY REAGENT AND RELATED PRODUCT” (BEIJING BAISHIKANG PHARMACEUTICAL TECHNOLOGY (BSJPHARMA) …, priority 2021, published 2025).

Test system: C57BL/6 male mice
Test: In vivo delivery study of lipid nucleic acid mixture (oral gavage, RT-qPCR of PGY-sRNA-26 in tissues)
Set-up: species or system mouse
Conditions: for overall delivery efficacy: delivering nucleic acids into each tissue and blood tested: 100 μg lipid:10 nmol PGY-sRNA-26, all tissues and blood tested; for oral delivery of single-stranded sRNA nucleic acids into mouse blood / oral delivery of single-stranded sRNA nucleic acids into mouse brain tissue / oral delivery of single-stranded sRNA nucleic acids into mouse femur / oral delivery of single-stranded sRNA nucleic acids into mouse heart tissue / oral delivery of single-stranded sRNA nucleic acids into mouse intestinal tissue / oral delivery of single-stranded sRNA nucleic acids into mouse kidney tissue / oral delivery of single-stranded sRNA nucleic acids into mouse liver tissue / oral delivery of single-stranded sRNA nucleic acids into mouse lung tissue / oral delivery of single-stranded sRNA nucleic acids into mouse spleen tissue / oral delivery of single-stranded sRNA nucleic acids into mouse stomach tissue: 100 μg lipid:10 nmol PGY-sRNA-26, sampled after 12 hours; for oral delivery of single-stranded sRNA nucleic acids into mouse heart tissue: vs free uptake group; for oral delivery of single-stranded sRNA nucleic acids into mouse intestinal tissue: intestine
In short: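 Stem-loop RT and SYBR qPCR, normalized to U6, measured PGY-sRNA-26 in blood and organs 12 h after gavage. Dosing was 10 nmol sRNA with 100 μg lipid, pre-mixed and heated 15 min at 90 °C, in 12-h-fasted mice, against saline and free-sRNA groups.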

| SMILES | overall delivery efficacy: delivering nucleic acids into each tissue and blood tested | oral delivery of single-stranded sRNA nucleic acids into mouse blood | oral delivery of single-stranded sRNA nucleic acids into mouse brain tissue | oral delivery of single-stranded sRNA nucleic acids into mouse femur | oral delivery of single-stranded sRNA nucleic acids into mouse heart tissue | oral delivery of single-stranded sRNA nucleic acids into mouse intestinal tissue | oral delivery of single-stranded sRNA nucleic acids into mouse kidney tissue | oral delivery of single-stranded sRNA nucleic acids into mouse liver tissue | oral delivery of single-stranded sRNA nucleic acids into mouse lung tissue | oral delivery of single-stranded sRNA nucleic acids into mouse spleen tissue | oral delivery of single-stranded sRNA nucleic acids into mouse stomach tissue |
| --- | --- | --- | --- | --- | --- | --- | --- | --- | --- | --- | --- |
| N[C@@H](CCCC(=O)O)C(=O)O [Lipid 595, (2S)-2-aminohexanedioic acid] | best delivery efficacy | can effectively orally deliver | can effectively orally deliver | can effectively orally deliver | can effectively orally deliver | can effectively orally deliver | can effectively orally deliver | can effectively orally deliver | can effectively orally deliver | can effectively orally deliver | can effectively orally deliver |
| CC(C(=O)O)C(=O)O [Lipid 596, 2-methylpropanedioic acid] | best delivery efficacy | can effectively orally deliver | can effectively orally deliver | can effectively orally deliver | can effectively orally deliver | can effectively orally deliver | can effectively orally deliver | can effectively orally deliver | can effectively orally deliver | can effectively orally deliver | can effectively orally deliver |
| CC(C)(CC(=O)O)CC(=O)O [Lipid 598, 3,3-dimethylpentanedioic acid] | best delivery efficacy | can effectively orally deliver | can effectively orally deliver | can effectively orally deliver | can effectively orally deliver | can effectively orally deliver | can effectively orally deliver | can effectively orally deliver | can effectively orally deliver | can effectively orally deliver | can effectively orally deliver |
| CCCCCCCCCCCCCCCC(N)=O [Lipid 599, hexadecanamide] | best delivery efficacy | can effectively orally deliver | can effectively orally deliver | can effectively orally deliver | can effectively orally deliver | can effectively orally deliver | can effectively orally deliver | can effectively orally deliver | can effectively orally deliver | can effectively orally deliver | can effectively orally deliver |
| CCCCCCCC/C=C/CCCCCCCCO [Lipid 600, (E)-octadec-9-en-1-ol] | best delivery efficacy | can effectively orally deliver | can effectively orally deliver | can effectively orally deliver | can effectively orally deliver | can effectively orally deliver | can effectively orally deliver | can effectively orally deliver | can effectively orally deliver | can effectively orally deliver | can effectively orally deliver |
| CCCCCCCCCCCCCCCCCC(N)=O [Lipid 601, octadecanamide] | best delivery efficacy | can effectively orally deliver | can effectively orally deliver | can effectively orally deliver | can effectively orally deliver | can effectively orally deliver | can effectively orally deliver | can effectively orally deliver | can effectively orally deliver | can effectively orally deliver | can effectively orally deliver |
| CCCCCCCCCCCCCCCC=O [Lipid 602] | best delivery efficacy | can effectively orally deliver | can effectively orally deliver | can effectively orally deliver | can effectively orally deliver | can effectively orally deliver | can effectively orally deliver | can effectively orally deliver | can effectively orally deliver | can effectively orally deliver | can effectively orally deliver |
| CC1(O)CCOC(=O)C1 (stereo not shown) [Lipid 603, 4-hydroxy-4-meth-yl-oxan-2-one] | best delivery efficacy | can effectively orally deliver | can effectively orally deliver | can effectively orally deliver | can effectively orally deliver | can effectively orally deliver | can effectively orally deliver | can effectively orally deliver | can effectively orally deliver | can effectively orally deliver | can effectively orally deliver |
